Patent US7074789B2, “Kinase inhibitors” (Amgen Inc., priority 1999, dated 2006)

Key:
Format in all cases: biochemical
[1] = molecular target: T1, Zap-70 (Homo sapiens, UniProt P43403); experiment: Kinase inhibition assay (33P transfer), Zap-70; settings: Table 3, class symbols; read-out: Zap-1
T1 construct: Kinases are expressed as either kinase domains or full length constructs; made in house
T1 sequence (P43403 1-619): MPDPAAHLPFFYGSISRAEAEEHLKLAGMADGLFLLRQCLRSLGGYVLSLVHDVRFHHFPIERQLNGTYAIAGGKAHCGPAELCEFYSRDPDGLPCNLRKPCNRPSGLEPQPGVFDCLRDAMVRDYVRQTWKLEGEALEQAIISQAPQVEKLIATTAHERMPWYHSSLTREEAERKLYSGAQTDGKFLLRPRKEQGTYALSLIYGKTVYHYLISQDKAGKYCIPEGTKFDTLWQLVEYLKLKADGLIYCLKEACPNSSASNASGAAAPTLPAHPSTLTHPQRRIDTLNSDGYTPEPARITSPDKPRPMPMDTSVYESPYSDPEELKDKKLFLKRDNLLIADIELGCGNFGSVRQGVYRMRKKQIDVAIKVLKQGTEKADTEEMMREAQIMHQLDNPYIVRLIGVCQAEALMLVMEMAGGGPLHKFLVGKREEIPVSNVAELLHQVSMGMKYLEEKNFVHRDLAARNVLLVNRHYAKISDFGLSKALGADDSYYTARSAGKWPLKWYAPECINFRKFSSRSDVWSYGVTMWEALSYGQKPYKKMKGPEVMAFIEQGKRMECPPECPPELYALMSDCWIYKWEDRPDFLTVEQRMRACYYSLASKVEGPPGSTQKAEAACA
Outline: (§1)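 Liquid scintillation counting of 33P on plate-bound synthetic substrates gives kinase activity. Plates are washed in 0.5% phosphoric acid first; kinases are tagged recombinant proteins from E. coli or baculovirus-infected High Five cells.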

[2] = molecular target: T2, Kdr (Homo sapiens, UniProt P35968); experiment: Kinase inhibition assay (33P transfer), Kdr; settings: Table 3, class symbols; read-out: KDR-1
T2 construct: Kinases are expressed as either kinase domains or full length constructs; made in house
Outline: as §1

[3] = molecular target: T3, PDGFRB (Homo sapiens, UniProt P09619); experiment: Kinase inhibition assay (33P transfer), PDGFRB; settings: read-out: PDGFRB-1
T3 construct: Kinases are expressed as either kinase domains or full length constructs; made in house

[4] = molecular target: T4, AKT (Homo sapiens, UniProt Q9Y243); experiment: Kinase inhibition assay (33P transfer), AKT; settings: Table 2, class symbols A-E; read-out: AKT3-1
T4 construct: Kinases are expressed as either kinase domains or full length constructs; made in house
T4 sequence (Q9Y243 whole entry, the tested form may be a part): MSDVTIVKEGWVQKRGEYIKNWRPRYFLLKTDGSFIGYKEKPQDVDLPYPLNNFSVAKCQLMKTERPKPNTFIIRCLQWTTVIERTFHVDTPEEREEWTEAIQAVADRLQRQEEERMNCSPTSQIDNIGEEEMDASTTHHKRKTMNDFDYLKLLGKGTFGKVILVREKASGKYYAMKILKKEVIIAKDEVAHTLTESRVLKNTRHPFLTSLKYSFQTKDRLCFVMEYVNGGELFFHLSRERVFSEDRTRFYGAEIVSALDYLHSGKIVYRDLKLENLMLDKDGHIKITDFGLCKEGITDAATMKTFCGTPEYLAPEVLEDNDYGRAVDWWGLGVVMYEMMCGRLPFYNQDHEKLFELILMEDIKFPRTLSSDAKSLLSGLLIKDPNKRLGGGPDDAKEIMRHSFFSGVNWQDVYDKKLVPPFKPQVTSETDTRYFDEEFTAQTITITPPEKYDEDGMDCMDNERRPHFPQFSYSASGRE
Outline: as §1

[5] = molecular target: T5, EGFR (Homo sapiens, UniProt P00533); experiment: Kinase inhibition assay (33P transfer), EGFR; settings: Table 2, class symbols A-E; read-out: EGFR-1
T5 construct: Kinases are expressed as either kinase domains or full length constructs; made in house
T5 sequence (P00533 25-1210, species assumed): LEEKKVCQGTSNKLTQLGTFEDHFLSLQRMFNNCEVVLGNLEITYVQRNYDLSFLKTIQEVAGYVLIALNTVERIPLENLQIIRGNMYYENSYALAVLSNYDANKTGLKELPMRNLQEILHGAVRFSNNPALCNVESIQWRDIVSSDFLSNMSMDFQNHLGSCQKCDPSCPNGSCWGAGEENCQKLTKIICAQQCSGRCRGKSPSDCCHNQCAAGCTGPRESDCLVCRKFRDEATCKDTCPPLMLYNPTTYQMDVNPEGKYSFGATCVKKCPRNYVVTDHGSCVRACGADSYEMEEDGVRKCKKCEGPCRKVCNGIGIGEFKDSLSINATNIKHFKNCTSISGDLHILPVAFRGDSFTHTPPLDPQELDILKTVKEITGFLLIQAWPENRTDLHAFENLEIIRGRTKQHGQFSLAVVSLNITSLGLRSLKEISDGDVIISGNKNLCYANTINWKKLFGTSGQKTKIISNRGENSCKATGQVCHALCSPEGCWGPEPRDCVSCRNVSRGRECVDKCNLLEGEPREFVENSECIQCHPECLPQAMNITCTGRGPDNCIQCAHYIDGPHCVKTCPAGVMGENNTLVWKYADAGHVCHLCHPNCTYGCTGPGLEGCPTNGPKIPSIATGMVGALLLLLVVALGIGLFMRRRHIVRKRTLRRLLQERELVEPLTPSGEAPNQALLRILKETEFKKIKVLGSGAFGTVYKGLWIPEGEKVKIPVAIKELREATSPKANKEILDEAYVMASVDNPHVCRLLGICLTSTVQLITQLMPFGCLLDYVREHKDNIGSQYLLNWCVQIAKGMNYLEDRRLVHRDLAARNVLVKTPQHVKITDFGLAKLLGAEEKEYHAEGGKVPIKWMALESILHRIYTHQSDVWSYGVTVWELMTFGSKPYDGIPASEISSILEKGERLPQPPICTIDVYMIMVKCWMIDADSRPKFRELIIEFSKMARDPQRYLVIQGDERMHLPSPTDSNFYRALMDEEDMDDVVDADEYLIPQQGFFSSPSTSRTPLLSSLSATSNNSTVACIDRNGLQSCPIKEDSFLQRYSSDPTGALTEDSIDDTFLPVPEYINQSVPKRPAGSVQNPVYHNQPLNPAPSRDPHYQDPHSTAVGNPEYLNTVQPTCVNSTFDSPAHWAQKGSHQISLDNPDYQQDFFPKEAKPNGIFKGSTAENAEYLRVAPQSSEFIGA
Outline: (§2)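 Kinase domains or full-length enzymes, GST- or polyHis-tagged, were expressed in E. coli or baculovirus High Five cells and affinity-purified. Transfer of 33PO4 from ATP onto plate-bound poly(Glu,Tyr) 4:1 or poly(Arg,Ser) 3:1 was counted by liquid scintillation after a 0.5% phosphoric acid wash. IC50 = concentration halving incorporation.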

[6] = molecular target: T6, IGFR-1 (Homo sapiens, UniProt P08069); experiment: Kinase inhibition assay (33P transfer), IGFR-1; settings: Table 2, class symbols A-E
T6 construct: Kinases are expressed as either kinase domains or full length constructs; made in house
T6 sequence (P08069 31-1367): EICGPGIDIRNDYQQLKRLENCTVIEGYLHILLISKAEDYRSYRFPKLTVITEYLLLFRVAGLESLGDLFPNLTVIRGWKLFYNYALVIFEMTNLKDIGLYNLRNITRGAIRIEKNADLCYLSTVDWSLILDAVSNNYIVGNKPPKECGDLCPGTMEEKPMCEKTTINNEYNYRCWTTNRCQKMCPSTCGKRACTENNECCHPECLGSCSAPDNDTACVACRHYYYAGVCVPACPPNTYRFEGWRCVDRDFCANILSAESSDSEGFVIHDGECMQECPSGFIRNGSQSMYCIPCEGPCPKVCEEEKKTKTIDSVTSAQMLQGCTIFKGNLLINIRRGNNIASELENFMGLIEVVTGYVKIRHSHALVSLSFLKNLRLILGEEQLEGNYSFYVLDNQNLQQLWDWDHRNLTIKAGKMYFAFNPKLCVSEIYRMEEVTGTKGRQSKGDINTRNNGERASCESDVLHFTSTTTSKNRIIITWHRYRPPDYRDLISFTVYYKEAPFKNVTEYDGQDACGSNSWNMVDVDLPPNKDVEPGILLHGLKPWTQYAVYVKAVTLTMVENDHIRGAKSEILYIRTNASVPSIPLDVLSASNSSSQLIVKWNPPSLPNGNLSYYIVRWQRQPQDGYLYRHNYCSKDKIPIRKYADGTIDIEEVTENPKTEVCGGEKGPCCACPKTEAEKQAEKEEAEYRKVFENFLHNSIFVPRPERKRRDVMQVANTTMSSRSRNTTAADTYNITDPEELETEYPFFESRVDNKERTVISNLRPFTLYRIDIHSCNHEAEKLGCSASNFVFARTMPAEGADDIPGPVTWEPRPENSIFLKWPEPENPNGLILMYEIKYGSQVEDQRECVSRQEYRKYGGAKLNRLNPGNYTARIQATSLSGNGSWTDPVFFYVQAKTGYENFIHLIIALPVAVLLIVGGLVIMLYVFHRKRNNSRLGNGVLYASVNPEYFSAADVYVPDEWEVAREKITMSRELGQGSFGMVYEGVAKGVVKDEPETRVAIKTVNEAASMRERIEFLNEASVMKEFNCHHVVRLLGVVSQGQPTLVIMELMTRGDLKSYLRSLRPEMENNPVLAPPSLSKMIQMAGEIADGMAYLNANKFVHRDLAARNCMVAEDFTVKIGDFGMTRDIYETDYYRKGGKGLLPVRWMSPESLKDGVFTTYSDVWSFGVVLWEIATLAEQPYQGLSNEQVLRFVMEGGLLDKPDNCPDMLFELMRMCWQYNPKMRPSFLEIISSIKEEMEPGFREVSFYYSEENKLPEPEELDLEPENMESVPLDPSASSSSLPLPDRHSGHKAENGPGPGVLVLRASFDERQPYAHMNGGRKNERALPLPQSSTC

[7] = molecular target: T7, Lck (Homo sapiens, UniProt P06239); experiment: Kinase inhibition assay (33P transfer), Lck; settings: Table 3, class symbols; read-out: Lck-1
T7 construct: Kinases are expressed as either kinase domains or full length constructs; made in house
T7 sequence (P06239 whole entry, species assumed, the tested form may be a part): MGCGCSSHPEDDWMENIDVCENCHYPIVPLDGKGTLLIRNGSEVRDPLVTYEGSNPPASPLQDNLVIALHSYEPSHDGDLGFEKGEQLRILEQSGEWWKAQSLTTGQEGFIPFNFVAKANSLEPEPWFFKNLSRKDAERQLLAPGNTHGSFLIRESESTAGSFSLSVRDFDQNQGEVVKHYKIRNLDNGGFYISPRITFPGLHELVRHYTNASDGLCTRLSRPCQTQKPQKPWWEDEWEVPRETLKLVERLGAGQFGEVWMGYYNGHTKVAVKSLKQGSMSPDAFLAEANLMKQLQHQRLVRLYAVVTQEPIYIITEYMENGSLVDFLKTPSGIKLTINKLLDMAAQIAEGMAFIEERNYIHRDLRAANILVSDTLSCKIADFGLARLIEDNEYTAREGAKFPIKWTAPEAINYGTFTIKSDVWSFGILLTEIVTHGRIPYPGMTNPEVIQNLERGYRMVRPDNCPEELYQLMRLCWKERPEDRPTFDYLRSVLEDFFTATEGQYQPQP
Outline: as §1

[8] = molecular target: T8, ErbB2 (Homo sapiens, UniProt P04626); experiment: Kinase inhibition assay (33P transfer), ErbB2; settings: read-out: ErbB2-2
T8 construct: Kinases are expressed as either kinase domains or full length constructs; made in house
Outline: as §2

[9] = molecular target: T9, c-Met (Homo sapiens, UniProt P08581); experiment: Kinase inhibition assay (33P transfer), c-Met; settings: Table 2, class symbols A-E; read-out: Met-1
T9 construct: Kinases are expressed as either kinase domains or full length constructs; made in house
T9 sequence (P08581 25-1390): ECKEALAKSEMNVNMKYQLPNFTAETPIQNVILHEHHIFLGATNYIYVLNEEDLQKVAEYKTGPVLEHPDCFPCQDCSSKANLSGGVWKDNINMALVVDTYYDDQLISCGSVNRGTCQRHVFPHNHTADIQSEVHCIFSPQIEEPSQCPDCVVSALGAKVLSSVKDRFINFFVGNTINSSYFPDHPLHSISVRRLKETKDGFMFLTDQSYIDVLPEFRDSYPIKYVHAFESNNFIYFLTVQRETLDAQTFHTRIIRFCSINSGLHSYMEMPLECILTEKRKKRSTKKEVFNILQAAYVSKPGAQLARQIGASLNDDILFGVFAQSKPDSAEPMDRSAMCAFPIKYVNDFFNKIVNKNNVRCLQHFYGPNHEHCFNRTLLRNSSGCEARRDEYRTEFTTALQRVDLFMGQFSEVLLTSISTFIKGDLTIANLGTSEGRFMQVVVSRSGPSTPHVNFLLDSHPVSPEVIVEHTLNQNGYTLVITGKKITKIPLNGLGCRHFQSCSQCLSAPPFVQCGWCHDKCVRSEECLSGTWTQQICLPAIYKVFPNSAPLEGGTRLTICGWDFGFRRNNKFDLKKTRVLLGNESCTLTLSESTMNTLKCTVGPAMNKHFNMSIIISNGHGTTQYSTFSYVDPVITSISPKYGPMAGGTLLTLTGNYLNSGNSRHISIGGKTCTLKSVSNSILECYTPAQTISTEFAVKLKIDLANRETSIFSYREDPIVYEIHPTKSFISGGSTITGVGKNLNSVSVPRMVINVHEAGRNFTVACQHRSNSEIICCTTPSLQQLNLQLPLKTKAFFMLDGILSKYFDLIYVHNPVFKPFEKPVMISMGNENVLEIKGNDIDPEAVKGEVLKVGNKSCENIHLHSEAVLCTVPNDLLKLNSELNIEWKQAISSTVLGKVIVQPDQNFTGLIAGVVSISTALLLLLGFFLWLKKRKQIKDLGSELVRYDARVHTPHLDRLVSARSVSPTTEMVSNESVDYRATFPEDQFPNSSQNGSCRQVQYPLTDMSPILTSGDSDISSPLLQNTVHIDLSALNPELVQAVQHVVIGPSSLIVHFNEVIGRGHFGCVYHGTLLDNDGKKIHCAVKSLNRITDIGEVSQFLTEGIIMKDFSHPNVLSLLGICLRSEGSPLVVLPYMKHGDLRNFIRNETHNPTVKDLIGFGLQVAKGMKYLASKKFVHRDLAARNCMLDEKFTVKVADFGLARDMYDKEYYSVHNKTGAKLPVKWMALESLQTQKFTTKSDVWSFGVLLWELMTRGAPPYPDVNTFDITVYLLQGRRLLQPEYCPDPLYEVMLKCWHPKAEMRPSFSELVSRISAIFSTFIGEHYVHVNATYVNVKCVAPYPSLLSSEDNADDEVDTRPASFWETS
Outline: as §2

[10] = molecular target: T10, Itk (Homo sapiens, UniProt Q08881); experiment: Kinase inhibition assay (33P transfer), Itk; settings: Table 3, class symbols; read-out: Itk-1
T10 construct: Kinases are expressed as either kinase domains or full length constructs; made in house
T10 sequence (Q08881 1-620): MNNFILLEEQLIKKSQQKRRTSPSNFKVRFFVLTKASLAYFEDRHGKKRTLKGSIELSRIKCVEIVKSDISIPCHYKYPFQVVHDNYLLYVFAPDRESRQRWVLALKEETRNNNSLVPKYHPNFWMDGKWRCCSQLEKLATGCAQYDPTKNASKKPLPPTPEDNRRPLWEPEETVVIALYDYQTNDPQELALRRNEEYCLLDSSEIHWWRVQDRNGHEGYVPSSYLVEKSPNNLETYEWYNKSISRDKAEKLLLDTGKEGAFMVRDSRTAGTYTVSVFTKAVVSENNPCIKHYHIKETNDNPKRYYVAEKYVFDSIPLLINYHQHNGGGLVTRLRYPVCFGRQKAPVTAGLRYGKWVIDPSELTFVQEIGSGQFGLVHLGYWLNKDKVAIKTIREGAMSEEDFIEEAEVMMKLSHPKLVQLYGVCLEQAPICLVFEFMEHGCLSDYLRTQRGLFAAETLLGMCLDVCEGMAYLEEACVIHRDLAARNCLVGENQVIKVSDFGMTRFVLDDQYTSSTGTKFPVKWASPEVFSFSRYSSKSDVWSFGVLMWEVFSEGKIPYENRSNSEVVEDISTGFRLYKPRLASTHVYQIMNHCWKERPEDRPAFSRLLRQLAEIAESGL
Outline: as §2

IC50 [1]	IC50 [2]	IC50 [3]	IC50 [4]	IC50 [5]	IC50 [6]	IC50 [7]	IC50 [8]	IC50 [9]	IC50 [10]	Compound
> 9.27 µM	0.824 to 4.94 µM	< 0.824 µM	0.824 to 4.94 µM	< 0.824 µM	> 9.27 µM	0.824 to 4.94 µM	0.824 to 4.94 µM	0.824 to 4.94 µM	0.824 to 4.94 µM	Cc1nccc(-c2cccc(Nc3ncnc(Nc4ccc5c(cnn5Cc5ccccc5)c4)n3)c2)n1 [Compound 901]
> 11 µM	> 11 µM	0.982 to 5.89 µM	> 11 µM	5.89 to 8.59 µM	8.59 to 11 µM	> 11 µM	> 11 µM	0.982 to 5.89 µM	0.982 to 5.89 µM	COC(=O)c1ccc(-c2cc(Nc3ncnc(NCc4cccs4)n3)[nH]n2)cc1 [Compound 877]
> 10.8 µM	0.958 to 5.75 µM	0.958 to 5.75 µM	> 10.8 µM	> 10.8 µM	> 10.8 µM	> 10.8 µM	> 10.8 µM	8.38 to 10.8 µM	> 10.8 µM	COc1ccc(Nc2ncnc(N(C)c3ccc(S(=O)(=O)O)cc3)n2)cc1OC [Compound 798]
> 12.2 µM	> 12.2 µM	< 1.08 µM	> 12.2 µM	> 12.2 µM	9.48 to 12.2 µM	> 12.2 µM	6.5 to 9.48 µM	> 12.2 µM	6.5 to 9.48 µM	COCCNc1ncnc(Nc2cc(-c3ccc(C(=O)OC)cc3)n[nH]2)n1 [Compound 816]
> 9.77 µM	< 0.869 µM	0.869 to 5.21 µM	> 9.77 µM	7.6 to 9.77 µM	> 9.77 µM	> 9.77 µM	0.869 to 5.21 µM	> 9.77 µM	> 9.77 µM	COc1cccc(Nc2ncccc2-c2ncnc(Nc3cc(OC)c(OC)c(OC)c3)n2)c1 [Compound 829]
> 12.1 µM	6.43 to 9.37 µM	1.07 to 6.43 µM	> 12.1 µM	< 1.07 µM	> 12.1 µM	1.07 to 6.43 µM	9.37 to 12.1 µM	1.07 to 6.43 µM	> 12.1 µM	COc1ccc(Nc2ncnc(N(C)c3ccc(F)cc3F)n2)cc1OC [Compound 801]
9.1 to 11.7 µM	< 1.04 µM	< 1.04 µM	9.1 to 11.7 µM	1.04 to 6.24 µM	> 11.7 µM	1.04 to 6.24 µM	9.1 to 11.7 µM	> 11.7 µM	> 11.7 µM	OCc1cccc(Nc2ncnc(-c3cccnc3NCc3ccccc3)n2)c1 [Compound 1103]
> 11.7 µM	1.04 to 6.22 µM	1.04 to 6.22 µM	> 11.7 µM	< 1.04 µM	1.04 to 6.22 µM	1.04 to 6.22 µM	1.04 to 6.22 µM	1.04 to 6.22 µM	1.04 to 6.22 µM	CCN(c1cccc(Cl)c1)c1ncnc(Nc2cc(OC)cc(OC)c2)n1 [Compound 724]
> 10.4 µM	8.11 to 10.4 µM	> 10.4 µM	> 10.4 µM	> 10.4 µM	0.927 to 5.56 µM	0.927 to 5.56 µM	5.56 to 8.11 µM	0.927 to 5.56 µM	8.11 to 10.4 µM	CCOc1cccc(Nc2ncnc(Nc3cc(-c4ccc(C(=O)OC)cc4)n[nH]3)n2)c1 [Compound 812]
> 9.63 µM	0.856 to 5.13 µM	0.856 to 5.13 µM	5.13 to 7.49 µM	0.856 to 5.13 µM	0.856 to 5.13 µM	5.13 to 7.49 µM	0.856 to 5.13 µM	0.856 to 5.13 µM	0.856 to 5.13 µM	COC(=O)c1ccc(-c2cc(Nc3ncnc(Nc4cccc(S(=O)(=O)O)c4)n3)[nH]n2)cc1 [Compound 882]
> 12.5 µM	9.72 to 12.5 µM	1.11 to 6.66 µM	> 12.5 µM	< 1.11 µM	9.72 to 12.5 µM	> 12.5 µM	9.72 to 12.5 µM	> 12.5 µM	> 12.5 µM	Cc1ccc(Cl)cc1Nc1ncnc(Nc2cc(Cl)ccc2C)n1 [Compound 638]
> 12.8 µM	1.14 to 6.83 µM	> 12.8 µM	> 12.8 µM	< 1.14 µM	9.96 to 12.8 µM	1.14 to 6.83 µM	1.14 to 6.83 µM	1.14 to 6.83 µM	> 12.8 µM	COc1ccc(Nc2ncnc(N(C)c3cccc(C)c3)n2)cc1OC [Compound 800]
> 10.5 µM	< 0.929 µM	< 0.929 µM	> 10.5 µM	0.929 to 5.58 µM	> 10.5 µM	8.13 to 10.5 µM	0.929 to 5.58 µM	8.13 to 10.5 µM	> 10.5 µM	O=C(O)Cc1cccc(Nc2ncnc(-c3cccnc3NCc3ccc(F)cc3)n2)c1 [Compound 1100]
> 10.8 µM	> 10.8 µM	> 10.8 µM	> 10.8 µM	> 10.8 µM	< 0.958 µM	> 10.8 µM	> 10.8 µM	< 0.958 µM	> 10.8 µM	COc1cc(C)c(Nc2ncnc(Nc3cc(-c4ccc(C)cc4)n[nH]3)n2)cc1OC [Compound 1127]
> 9.03 µM	> 9.03 µM	> 9.03 µM	> 9.03 µM	> 9.03 µM	> 9.03 µM	> 9.03 µM	> 9.03 µM	> 9.03 µM	> 9.03 µM	COc1cc(Nc2ncnc(-c3cccnc3Nc3cccc(C(F)(F)F)c3)n2)cc(OC)c1OC [Compound 836]
> 10.4 µM	< 0.927 µM	8.11 to 10.4 µM	8.11 to 10.4 µM	< 0.927 µM	> 10.4 µM	0.927 to 5.56 µM	0.927 to 5.56 µM	5.56 to 8.11 µM	> 10.4 µM	CCN(c1ncnc(Nc2cc(OC)c(OC)c(OC)c2)n1)c1cccc2ccccc12 [Compound 634]
> 10.7 µM	> 10.7 µM	0.954 to 5.72 µM	> 10.7 µM	> 10.7 µM	> 10.7 µM	> 10.7 µM	> 10.7 µM	> 10.7 µM	> 10.7 µM	COC(=O)c1ccc(-c2cc(Nc3ncnc(NCc4ccccc4F)n3)[nH]n2)cc1 [Compound 814]
> 12.1 µM	1.08 to 6.46 µM	1.08 to 6.46 µM	> 12.1 µM	< 1.08 µM	< 1.08 µM	< 1.08 µM	1.08 to 6.46 µM	1.08 to 6.46 µM	< 1.08 µM	Cc1ccc(-c2cc(Nc3ncnc(Nc4cc(C)ccc4C)n3)[nH]n2)cc1 [Compound 1125]
> 8.61 µM	> 8.61 µM	4.59 to 6.7 µM	> 8.61 µM	> 8.61 µM	> 8.61 µM	> 8.61 µM	0.765 to 4.59 µM	> 8.61 µM	> 8.61 µM	COc1cc(Nc2ncnc(-c3cccnc3Nc3ccc(Oc4ccccc4)cc3)n2)cc(OC)c1OC [Compound 839]
> 12.1 µM	1.08 to 6.45 µM	< 1.08 µM	> 12.1 µM	< 1.08 µM	9.41 to 12.1 µM	1.08 to 6.45 µM	< 1.08 µM	< 1.08 µM	> 12.1 µM	COc1ccc(Nc2ncnc(N(C)c3ccc(Cl)cc3)n2)cc1OC [Compound 795]
